Assay results reported in patent publication US20080241234A1, “PHARMACEUTICAL FORMULATIONS OF AN ANHYDRATE CRYSTAL FORM OF 2-(3-FLUORO-4-HYDROXYPHENYL)-7-VINYL-1,3-BENZOXAZOL-5-OL” (WYETH, priority 2006, published 2008).

Assay: Crystal form conversion on suspending and stirring in a solvent at room temperature
Format: physicochemical
Excerpt: The anhydrate crystal form (Form E) can be converted to other crystal forms under suitable conditions. […] 6, 2006).

C=Cc1cc(O)cc2nc(-c3ccc(O)c(F)c3)oc12 [Form E, 2-(3-fluoro-4-hydroxyphenyl)-7-vinyl-1,3-benzoxazol-5-ol]
crystal form obtained after suspension and stirring in ethanol or acetone (suspended and stirred in ethanol or acetone at room temperature for seven days): another anhydrate crystal form is obtained
crystal form obtained after suspension and stirring in water (suspended and stirred in water at room temperature for seven days): converted to a hydrate crystal form
